Source: patent US20080009418A1, “Selective Inhibitors” (Alchemia LTD., priority 2004, published 2008)

Legend:
Human neurokinin (NK1) = target: T1, Human neurokinin (NK1) (Homo sapiens, UniProt P25103); experiment: Radioligand binding, human neurokinin NK1 membranes, filtration, [125I]-Substance P; settings: compound at 10 μM, [125I]-Substance P; for A8: inhibition of radioligand binding: filtration
T1 construct: purchased Perkin Elmer Biosignal
Procedure, shortened: (§1)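 Membranes from cloned human receptors were incubated with compound and radioligand for 1 hour at room temperature. Bound ligand was collected on 0.3% PEI-soaked filters, washed with cold 50 mM Tris-HCl pH 7.4, and counted by scintillation. Percent inhibition was computed against DMSO totals and reference-ligand nonspecific wells.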

Human melanocortin (MC5) = target: T2, Human melanocortin (MC5) (Homo sapiens, UniProt P33032); experiment: Radioligand binding, human melanocortin MC5 membranes, FlashPlate, [125I]-NDP-αMSH; settings: compound at 10 μM, [125I]-NDP-αMSH; for A5: inhibition of radioligand binding: FlashPlate
T2 construct: purchased Perkin Elmer Biosignal
Procedure, shortened: (§2)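 Cloned human receptor membranes were coated onto FlashPlate wells and incubated with radioligand and compound (added from a 0.5 mM DMSO daughter plate) for 1 hour at room temperature in the dark. Scintillation counting gave percent inhibition, with DMSO defining total and reference ligand defining non-specific binding.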

Human μ-opioid (MOP) = target: T3, Human μ-opioid (MOP) (Homo sapiens, UniProt P35372); experiment: Radioligand binding, human μ-opioid (MOP) membranes, FlashPlate, [3H]-Naloxone; settings: compound at 10 μM, [3H]-Naloxone; for A7: inhibition of radioligand binding: FlashPlate
T3 construct: purchased Perkin Elmer Biosignal
Procedure, shortened: as §2

Human κ-Opioid (KOP) = target: T4, Human κ-Opioid (KOP) (Homo sapiens, UniProt P41145); experiment: Radioligand binding, human κ-opioid (KOP) membranes, filtration, [3H]-Diprenorphine; settings: compound at 10 μM, [3H]-Diprenorphine; for A2: inhibition of radioligand binding: filtration
T4 construct: purchased Perkin Elmer Biosignal
Procedure, shortened: as §1

Human Melanocortin (MC3) = target: T5, Human Melanocortin (MC3) (Homo sapiens, UniProt P41968); experiment: Radioligand binding, human melanocortin MC3 membranes, FlashPlate, [125I]-NDP-αMSH; settings: compound at 10 μM, [125I]-NDP-αMSH; for A3: inhibition of radioligand binding: FlashPlate
T5 construct: purchased Perkin Elmer Biosignal
Procedure, shortened: as §2

Human Melanocortin (MC4) = target: T6, Human Melanocortin (MC4) (Homo sapiens, UniProt P32245); experiment: Radioligand binding, human melanocortin MC4 membranes, FlashPlate, [125I]-NDP-αMSH; settings: compound at 10 μM, [125I]-NDP-αMSH; for A4: inhibition of radioligand binding: FlashPlate
T6 construct: purchased Perkin Elmer Biosignal
Procedure, shortened: as §2

Human opioid (ORL1) = target: T7, Human opioid (ORL1) (Homo sapiens, UniProt P41146); experiment: Radioligand binding, human opioid ORL1 membranes, FlashPlate, [125I]-Nociceptin; settings: compound at 10 μM, [125I]-Nociceptin; for A10: inhibition of radioligand binding: FlashPlate
T7 construct: purchased Perkin Elmer Biosignal
Procedure, shortened: as §2

[1] = target: T8, Human neuropeptide Y (NPY-Y1) (Homo sapiens, UniProt P25929); experiment: Radioligand binding, human neuropeptide Y NPY-Y1 membranes, FlashPlate, [125I]-PYY; settings: compound at 10 μM, [125I]-PYY; for A9: inhibition of radioligand binding: FlashPlate
T8 construct: purchased Perkin Elmer Biosignal
T8 sequence (P25929 1-384): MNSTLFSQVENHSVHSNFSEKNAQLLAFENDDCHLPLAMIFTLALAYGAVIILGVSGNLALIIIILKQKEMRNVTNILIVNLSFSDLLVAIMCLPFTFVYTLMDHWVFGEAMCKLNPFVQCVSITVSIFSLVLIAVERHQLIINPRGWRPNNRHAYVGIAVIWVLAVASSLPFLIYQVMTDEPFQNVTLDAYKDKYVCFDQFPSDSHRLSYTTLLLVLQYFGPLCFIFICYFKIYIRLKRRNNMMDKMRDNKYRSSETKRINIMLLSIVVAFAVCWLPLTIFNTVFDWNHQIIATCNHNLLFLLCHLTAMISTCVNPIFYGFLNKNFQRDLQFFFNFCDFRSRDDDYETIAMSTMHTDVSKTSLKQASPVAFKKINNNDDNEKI
Procedure, shortened: as §2

Mouse urotensin (mUR2) = target: T9, Mouse urotensin (mUR2) (Mus musculus, UniProt Q8VIH9); experiment: Radioligand binding, mouse urotensin mUR2 membranes, FlashPlate, [125I]-Urotensin II; settings: compound at 10 μM, [125I]-Urotensin II; for A11: inhibition of radioligand binding: FlashPlate
T9 construct: purchased Perkin Elmer Biosignal
T9 sequence (Q8VIH9 1-385): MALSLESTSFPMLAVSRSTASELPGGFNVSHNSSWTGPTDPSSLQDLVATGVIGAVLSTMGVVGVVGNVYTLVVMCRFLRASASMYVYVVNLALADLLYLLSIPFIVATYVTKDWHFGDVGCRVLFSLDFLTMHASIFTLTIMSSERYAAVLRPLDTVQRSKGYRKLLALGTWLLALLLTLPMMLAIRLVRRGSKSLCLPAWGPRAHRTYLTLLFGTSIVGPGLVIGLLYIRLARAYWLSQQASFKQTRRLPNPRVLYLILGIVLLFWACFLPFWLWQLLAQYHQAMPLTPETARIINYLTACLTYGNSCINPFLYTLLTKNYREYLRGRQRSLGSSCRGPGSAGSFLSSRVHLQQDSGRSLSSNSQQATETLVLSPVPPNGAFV
Procedure, shortened: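 Cloned mouse urotensin (mUR2) receptor membranes from Perkin Elmer Biosignal were immobilized in FlashPlate microplates using a proprietary coating. Each well got 19.5 μl buffer, then 0.5 μl of DMSO, reference ligand, or compound. Adding 5 μl of [125I]-Urotensin II, diluted to 5× final concentration in binding buffer, started binding. Plates were sealed with TopSeal-A and incubated 1 hour at room temperature in the dark. Wells were counted for 30 seconds each on a TopCount after a 60-second delay, and percentage inhibition was calculated.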

[2] = target: T10, Human melanin-concentrating hormone (MCH1) (Homo sapiens, UniProt Q99705); experiment: Radioligand binding, human melanin-concentrating hormone MCH1 membranes, FlashPlate, [125I]-S36057; settings: compound at 10 μM; for A6: inhibition of radioligand binding: [125I]-S36057, FlashPlate
T10 construct: purchased Perkin Elmer Biosignal
Procedure, shortened: as §2

Human δ-opioid (DOP) = target: T11, Human δ-opioid (DOP) (Homo sapiens, UniProt P41143); experiment: Radioligand binding, human δ-opioid (DOP) membranes, FlashPlate, [3H]-Bremazocine; settings: compound at 10 μM, [3H]-Bremazocine; for A1: inhibition of radioligand binding: FlashPlate
T11 construct: purchased Perkin Elmer Biosignal
Procedure, shortened: as §2

T3 sequence (P35372 whole entry): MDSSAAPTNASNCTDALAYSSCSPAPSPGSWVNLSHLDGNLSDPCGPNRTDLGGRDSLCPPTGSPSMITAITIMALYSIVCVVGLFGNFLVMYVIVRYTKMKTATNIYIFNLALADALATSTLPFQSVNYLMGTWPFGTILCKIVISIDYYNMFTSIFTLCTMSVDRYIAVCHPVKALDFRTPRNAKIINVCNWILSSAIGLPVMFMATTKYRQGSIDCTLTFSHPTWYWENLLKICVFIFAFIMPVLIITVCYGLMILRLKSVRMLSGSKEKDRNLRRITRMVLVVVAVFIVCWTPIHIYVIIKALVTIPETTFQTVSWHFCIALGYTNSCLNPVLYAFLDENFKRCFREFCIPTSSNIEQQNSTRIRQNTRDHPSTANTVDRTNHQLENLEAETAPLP
T7 sequence (P41146 whole entry): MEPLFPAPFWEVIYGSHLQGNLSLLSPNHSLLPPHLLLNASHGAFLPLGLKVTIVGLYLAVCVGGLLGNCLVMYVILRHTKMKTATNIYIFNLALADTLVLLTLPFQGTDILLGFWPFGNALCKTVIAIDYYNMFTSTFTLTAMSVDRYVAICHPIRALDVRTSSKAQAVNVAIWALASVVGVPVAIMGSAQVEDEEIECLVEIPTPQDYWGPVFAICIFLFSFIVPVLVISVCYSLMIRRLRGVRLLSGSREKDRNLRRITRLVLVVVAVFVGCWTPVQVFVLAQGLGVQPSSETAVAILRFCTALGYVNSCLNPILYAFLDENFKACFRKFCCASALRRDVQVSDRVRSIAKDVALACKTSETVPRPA
T4 sequence (P41145 whole entry): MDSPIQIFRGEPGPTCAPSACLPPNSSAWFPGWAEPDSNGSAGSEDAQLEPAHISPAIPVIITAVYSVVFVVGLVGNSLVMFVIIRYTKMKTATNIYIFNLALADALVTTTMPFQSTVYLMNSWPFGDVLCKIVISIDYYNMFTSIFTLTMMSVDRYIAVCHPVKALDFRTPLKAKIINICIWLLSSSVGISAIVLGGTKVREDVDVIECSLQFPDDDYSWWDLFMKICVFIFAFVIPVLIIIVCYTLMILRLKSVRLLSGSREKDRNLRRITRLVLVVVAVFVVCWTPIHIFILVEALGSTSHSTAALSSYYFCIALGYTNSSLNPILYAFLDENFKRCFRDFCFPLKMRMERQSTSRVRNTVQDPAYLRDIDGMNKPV
T1 sequence (P25103 whole entry): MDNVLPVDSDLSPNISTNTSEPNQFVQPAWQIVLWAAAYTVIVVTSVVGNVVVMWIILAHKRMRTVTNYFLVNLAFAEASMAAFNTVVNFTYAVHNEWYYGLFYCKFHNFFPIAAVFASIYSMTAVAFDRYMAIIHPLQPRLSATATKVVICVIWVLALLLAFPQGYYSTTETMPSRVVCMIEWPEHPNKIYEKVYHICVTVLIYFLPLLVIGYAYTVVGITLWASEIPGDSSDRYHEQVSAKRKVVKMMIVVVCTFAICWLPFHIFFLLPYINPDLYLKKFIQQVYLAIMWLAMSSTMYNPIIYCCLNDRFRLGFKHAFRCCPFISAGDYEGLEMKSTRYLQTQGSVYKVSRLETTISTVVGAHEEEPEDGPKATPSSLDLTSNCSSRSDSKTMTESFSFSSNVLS
T5 sequence (P41968 whole entry): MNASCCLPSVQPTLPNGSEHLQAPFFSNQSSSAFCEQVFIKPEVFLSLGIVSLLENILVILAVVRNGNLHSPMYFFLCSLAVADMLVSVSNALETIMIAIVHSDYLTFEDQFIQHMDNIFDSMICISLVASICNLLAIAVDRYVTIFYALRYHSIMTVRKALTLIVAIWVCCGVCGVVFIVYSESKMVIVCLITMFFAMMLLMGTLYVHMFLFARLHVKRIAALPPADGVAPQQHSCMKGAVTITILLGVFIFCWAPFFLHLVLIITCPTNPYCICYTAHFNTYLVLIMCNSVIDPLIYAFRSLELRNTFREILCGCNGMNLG
T6 sequence (P32245 whole entry): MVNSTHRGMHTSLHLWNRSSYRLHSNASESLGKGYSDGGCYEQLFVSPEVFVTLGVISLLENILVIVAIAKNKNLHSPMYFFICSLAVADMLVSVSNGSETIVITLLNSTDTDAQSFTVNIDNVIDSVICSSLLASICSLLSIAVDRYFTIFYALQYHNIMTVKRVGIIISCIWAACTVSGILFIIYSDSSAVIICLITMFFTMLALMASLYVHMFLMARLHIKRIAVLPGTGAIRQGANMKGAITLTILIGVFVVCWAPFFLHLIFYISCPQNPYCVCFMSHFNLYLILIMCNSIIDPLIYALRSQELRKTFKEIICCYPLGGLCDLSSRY
T11 sequence (P41143 whole entry): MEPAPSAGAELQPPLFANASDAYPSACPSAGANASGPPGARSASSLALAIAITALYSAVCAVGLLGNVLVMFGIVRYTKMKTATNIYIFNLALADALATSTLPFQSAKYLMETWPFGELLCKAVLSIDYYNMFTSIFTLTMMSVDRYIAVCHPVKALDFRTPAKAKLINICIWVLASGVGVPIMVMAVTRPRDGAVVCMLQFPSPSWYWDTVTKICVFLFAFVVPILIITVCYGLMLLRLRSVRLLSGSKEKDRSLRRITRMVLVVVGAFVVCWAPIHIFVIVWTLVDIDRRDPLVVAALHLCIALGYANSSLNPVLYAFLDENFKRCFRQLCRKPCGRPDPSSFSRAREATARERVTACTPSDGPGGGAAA
T2 sequence (P33032 whole entry): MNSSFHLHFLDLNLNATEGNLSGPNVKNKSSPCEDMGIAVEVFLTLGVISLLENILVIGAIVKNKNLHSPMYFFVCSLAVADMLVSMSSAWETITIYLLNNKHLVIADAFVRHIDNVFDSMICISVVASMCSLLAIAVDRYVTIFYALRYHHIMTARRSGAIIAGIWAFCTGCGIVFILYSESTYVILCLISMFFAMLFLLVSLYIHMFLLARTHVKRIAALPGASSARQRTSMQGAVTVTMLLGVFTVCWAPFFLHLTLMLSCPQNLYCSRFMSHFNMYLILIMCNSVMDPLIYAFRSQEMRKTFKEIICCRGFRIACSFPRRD
T10 sequence (Q99705 whole entry): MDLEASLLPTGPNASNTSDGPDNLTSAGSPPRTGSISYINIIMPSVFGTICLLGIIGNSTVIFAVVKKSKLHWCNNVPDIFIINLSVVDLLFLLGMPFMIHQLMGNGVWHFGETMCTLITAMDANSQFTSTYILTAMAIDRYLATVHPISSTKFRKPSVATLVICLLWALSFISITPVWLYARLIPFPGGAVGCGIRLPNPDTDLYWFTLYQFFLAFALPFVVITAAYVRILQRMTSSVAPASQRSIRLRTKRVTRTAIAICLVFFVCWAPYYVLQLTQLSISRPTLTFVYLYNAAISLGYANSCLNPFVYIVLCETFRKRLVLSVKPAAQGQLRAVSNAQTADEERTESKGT

SMILES	A8: inhibition of radioligand binding (Human neurokinin (NK1))	A5: inhibition of radioligand binding (Human melanocortin (MC5))	A7: inhibition of radioligand binding (Human μ-opioid (MOP))	A2: inhibition of radioligand binding (Human κ-Opioid (KOP))	A3: inhibition of radioligand binding (Human Melanocortin (MC3))	A4: inhibition of radioligand binding (Human Melanocortin (MC4))	A10: inhibition of radioligand binding (Human opioid (ORL1))	A9: inhibition of radioligand binding [1]	A11: inhibition of radioligand binding (Mouse urotensin (mUR2))	A6: inhibition of radioligand binding [2]	A1: inhibition of radioligand binding (Human δ-opioid (DOP))	also measured
CO[C@H]1[C@H](O)[C@@H](COCc2ccc(-c3ccccc3)cc2)OC(OCc2ccc(Cl)cc2)[C@@H]1NC(=O)CCCNC(=N)N (stereo partly drawn) [compound 96]												A8 radioligand binding, percentage inhibition (Human neurokinin (NK1)): + (“+” indicates greater than 50% inhibition at 10 μM); A5 radioligand binding, percentage inhibition (Human melanocortin (MC5)): + (“+” indicates greater than 50% inhibition at 10 μM); A7 radioligand binding, percentage inhibition (Human μ-opioid (MOP)): − (“−” indicates less than 50% inhibition at 10 μM); A2 radioligand binding, percentage inhibition (Human κ-Opioid (KOP)): + (“+” indicates greater than 50% inhibition at 10 μM); A3 radioligand binding, percentage inhibition (Human Melanocortin (MC3)): + (“+” indicates greater than 50% inhibition at 10 μM); A4 radioligand binding, percentage inhibition (Human Melanocortin (MC4)): + (“+” indicates greater than 50% inhibition at 10 μM); A10 radioligand binding, percentage inhibition (Human opioid (ORL1)): + (“+” indicates greater than 50% inhibition at 10 μM); A9 radioligand binding, percentage inhibition [1]: + (“+” indicates greater than 50% inhibition at 10 μM); A11 radioligand binding, percentage inhibition (Mouse urotensin (mUR2)): − (“−” indicates less than 50% inhibition at 10 μM); A6 radioligand binding, percentage inhibition ([2]; [125I]-S36057): + (“+” indicates greater than 50% inhibition at 10 μM); A1 radioligand binding, percentage inhibition (Human δ-opioid (DOP)): − (“−” indicates less than 50% inhibition at 10 μM)
COCC1OC(OCCc2ccccc2)C(NC(=O)CCN)C(OCc2ccc3ccccc3c2)C1O (stereo not drawn) [compound 227]	+ (“+” indicates greater than 50% inhibition at 10 μM)	− (“−” indicates less than 50% inhibition at 10 μM)	− (“−” indicates less than 50% inhibition at 10 μM)	− (“−” indicates less than 50% inhibition at 10 μM)	− (“−” indicates less than 50% inhibition at 10 μM)	− (“−” indicates less than 50% inhibition at 10 μM)	− (“−” indicates less than 50% inhibition at 10 μM)	− (“−” indicates less than 50% inhibition at 10 μM)	− (“−” indicates less than 50% inhibition at 10 μM)	− (“−” indicates less than 50% inhibition at 10 μM)	− (“−” indicates less than 50% inhibition at 10 μM)	
COCC1OC(OCCc2ccccc2)C(NC(=O)CN)C(OCc2ccc3ccccc3c2)C1O (stereo not drawn) [compound 225]	+ (“+” indicates greater than 50% inhibition at 10 μM)	− (“−” indicates less than 50% inhibition at 10 μM)	− (“−” indicates less than 50% inhibition at 10 μM)	− (“−” indicates less than 50% inhibition at 10 μM)	− (“−” indicates less than 50% inhibition at 10 μM)	− (“−” indicates less than 50% inhibition at 10 μM)	− (“−” indicates less than 50% inhibition at 10 μM)	− (“−” indicates less than 50% inhibition at 10 μM)	− (“−” indicates less than 50% inhibition at 10 μM)	− (“−” indicates less than 50% inhibition at 10 μM)	− (“−” indicates less than 50% inhibition at 10 μM)	
